Results taken from patent US10758517B2, “mPGES-1 inhibitor for the treatment of osteoarthritis pain” (Glenmark Pharmaceuticals S.A., priority 2017, dated 2020).
Marks after values point to notes of the source that are not given here.

Test system: LPS-induced PGE2 release
Assay: Ex vivo LPS-induced PGE2 release in whole blood, single dose crossover versus celecoxib (Example 1, Part 3)
Parameters: species or system human
Conditions: single oral dose 400 mg, fasted healthy subjects
Method: Part 2 was a single-dose, double-blind study in a single cohort of elderly subjects. Part 3 was an open-label, randomized, 2-period, single-dose, crossover study to compare effects of the highest tolerated Compound I dose and celecoxib on prostanoid metabolism in healthy adult subjects.
In Part 3, Compound I was administered at a dose of 1000 mg after fasting. All subjects received Compound I and all subjects received 400 mg celecoxib in a cross-over study design.
In Parts 1a and 3, whole blood samples were incubated and analyzed for lipopolysaccharide (LPS)-induced prostaglandin PGE2 release. In Part 3, urine samples were collected for analysis of prostanoid metabolites.
Summary statistics were presented for the PK, pharmacodynamic (PD) and safety data, as appropriate. PK parameters following single oral doses of Compound I were determined from the plasma concentrations of Compound I using non-compartmental procedures in WinNonlin Dose proportionality was assessed using a power model, with tmax analyzed using the Kruskal-Wallis test. The effect of food on PK was assessed at the 100 and 250 mg doses using a mixed effects model. The effect of age on PK was assessed for elderly (>65 years) versus non-elderly (<65 years) at the 250 mg dose level in Parts 1a and 2, using an analysis of variance (ANOVA) with age as a fixed effect. For PD analyses, percent decrease of ex vivo LPS-induced PGE2 release was calculated. For Part 3, urinary excretion of prostanoid metabolites was also evaluated. The data are presented as absolute, as well as creatinine normalized urinary biomarker amounts, along percent change from baseline over a definite time interval. The percent change from baseline in urinary biomarkers was assessed using an analysis of covariance (ANCOVA) model
Percent change in ex vivo LPS-induced PGE2 release in whole blood is the pharmacodynamic (PD) biomarker. The PGE2 levels in whole blood were estimated using the homogeneous time-resolved fluorescence method.
Concentrations below the limit of quantification were treated as ½ the lower limit of quantification for calculation.
Time points where unstimulated prostaglandin E2 (PGE2) concentration was more than 3 times greater than the mean unstimulated PGE2 and equal to or greater than ½ baseline value for an individual subject were not included in the calculation of % inhibition.

## Cc1ccc(-c2cc(C(F)(F)F)nn2-c2ccc(S(N)(=O)=O)cc2)cc1 [Celecoxib, celecoxib, reference compound]
  EAUC0-24 h, LS mean: 1421 % · h
  ETmax (time to reach maximum effect), Median: 6.00 h
  Epeak (maximum % inhibition), LS mean: 89.1%
N = 18
  EAUC0-336 h, LS mean: −10159^a % · h
